# Reference: ChEMBL document CHEMBL1201862, “PubChem BioAssay data set” (2004)
#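 How tested: cells in 96-well plates exposed to compound for 48 hours at five concentrations. GI50 = concentration required for 50% inhibition of growth.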 Activity calls are given as the source filed them. Cut-off read from the data, not from the text of the source: active = GI50 up to about 1.1 µM and inactive = higher.
# Assays:
# Test in all cases: DTP human tumour cell line panel, 48 h
# HT-29 = test system: HT-29
# KM-20L2 = test system: KM-20L2
# 786-0 = test system: 786-0
# TK-10 = test system: TK-10
# UACC-62 = test system: UACC-62
# RPMI-8226 = test system: RPMI-8226
# HOP-62 = test system: HOP-62
# CCRF-CEM = test system: CCRF-CEM
# M14 = test system: M14
# EKVX = test system: EKVX
# HL-60 = test system: HL-60
# HCT-116 = test system: HCT-116
# A498 = test system: A498
# NCI-H23 = test system: NCI-H23
Compound,GI50 (HT-29),GI50 (KM-20L2),GI50 (786-0),GI50 (TK-10),GI50 (UACC-62),GI50 (RPMI-8226),GI50 (HOP-62),GI50 (CCRF-CEM),GI50 (M14),GI50 (EKVX),GI50 (HL-60),GI50 (HCT-116),GI50 (A498),GI50 (NCI-H23)
O=C(/C=C/c1ccccc1O)c1cccc2ccccc12,> 66.5 µM (inactive),> 100 µM (inactive),58.7 µM (inactive),> 100 µM (inactive),> 100 µM (inactive),20.3 µM (inactive),> 81.7 µM (inactive),18.2 µM (inactive),> 100 µM (inactive),> 87.9 µM (inactive),27.9 µM (inactive),27.6 µM (inactive),> 100 µM (inactive),60.7 µM (inactive)
CCC(=O)N1C(=S)SC[C@H]1C(=O)OC,> 100 µM (inactive),> 100 µM (inactive),> 100 µM (inactive),> 100 µM (inactive),> 100 µM (inactive),,> 100 µM (inactive),69.2 µM (inactive),> 100 µM (inactive),> 100 µM (inactive),> 100 µM (inactive),> 100 µM (inactive),> 100 µM (inactive),> 100 µM (inactive)
COc1cc2cc(OC(C)=O)c3cc4c(cc3c2c(OC)c1OC)OCO4,> 100 µM (inactive),> 100 µM (inactive),> 100 µM (inactive),> 100 µM (inactive),,,> 100 µM (inactive),> 100 µM (inactive),> 100 µM (inactive),> 100 µM (inactive),> 100 µM (inactive),> 100 µM (inactive),> 100 µM (inactive),> 100 µM (inactive)
COC(=O)C1C(=O)CC2CCCCC21 (configuration not stated),,> 100 µM (inactive),> 100 µM (inactive),> 100 µM (inactive),> 100 µM (inactive),> 100 µM (inactive),> 100 µM (inactive),> 100 µM (inactive),> 100 µM (inactive),,> 100 µM (inactive),> 100 µM (inactive),> 100 µM (inactive),
O=C1C=CC(CC(=O)c2ccc3ccccc3c2)O1 (configuration not stated),19.1 µM (inactive),20.5 µM (inactive),21.6 µM (inactive),32.8 µM (inactive),18.8 µM (inactive),,21.5 µM (inactive),23.2 µM (inactive),32.2 µM (inactive),> 100 µM (inactive),17.1 µM (inactive),17.9 µM (inactive),20 µM (inactive),20.7 µM (inactive)
Cc1ccccc1NC(=O)C1C(=O)N(c2ccccc2C)C(=O)/C1=N\N (configuration not stated),> 100 µM (inactive),> 100 µM (inactive),> 100 µM (inactive),,> 100 µM (inactive),> 100 µM (inactive),> 100 µM (inactive),> 100 µM (inactive),> 100 µM (inactive),> 100 µM (inactive),> 100 µM (inactive),> 100 µM (inactive),> 100 µM (inactive),> 100 µM (inactive)
CN(C)CCNC(=O)c1cccc2ncc(-c3ccccc3)nc12,6.17 µM (inactive),3.81 µM (inactive),10 µM (inactive),6.93 µM (inactive),13.8 µM (inactive),,9.25 µM (inactive),8.99 µM (inactive),13.9 µM (inactive),13.3 µM (inactive),14.4 µM (inactive),4.26 µM (inactive),6.15 µM (inactive),14.6 µM (inactive)
Clc1ccccc1CN1COc2c(ccc3cccnc23)C1,,15.7 µM (inactive),4.28 µM (inactive),10.4 µM (inactive),3.09 µM (inactive),2.73 µM (inactive),2.69 µM (inactive),0.405 µM (active),2.59 µM (inactive),4.46 µM (inactive),1.83 µM (inactive),3.07 µM (inactive),8.24 µM (inactive),1.62 µM (inactive)
